The source of these data is PubChem BioAssay AID179 (DTP/NCI, 2004).

Calls of active or inactive are those of the source.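 How the source made its calls: active means compounds giving half or more protection of infected cells from virus-caused growth loss, again on retest; inactive means the rest.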

For the test, the system named is CEM cells HIV-1 protection, formazan growth assay. Put plainly: NCI AIDS Antiviral Assay. To be noted: for IC50: measured here: growth of uninfected CEM cells. A digest of the protocol: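 Soluble formazan readout of cell growth; CEM cells ± HIV-1; 5 drug concs. ≥50% protection → retest; ≥50% again = moderately active; reproducible 100% = confirmed active.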

`CCC[CH2][Sn]([CH2]CCC)([O]C(=O)C1CCC(=O)N1)[O]C(=O)C1CCC(=O)N1` (configuration not stated): the EC50 is more than 38.9 µM and the IC50 stood at 0.0912 µM.
Take `CC1OC(OC2C(O)COC(OC3C(C)OC(OC4C(OC(=O)[C@]56CCC(C)(C)C[C@@H]5C5=CCC7[C@@]8(C)C[C@H](O)[C@H](OC9OC(CO)C(O)C(OC%10OC(CO)C(O)C(O)C%10O)C9O)[C@@](C)(CO)[C@@H]8CC[C@@]7(C)[C@]5(C)CC6)OCC(O)C4O)C(O)C3OC3OCC(O)(CO)C3O)C2O)C(O)C(O)C1O` (some centres not stated): the EC50 was more than 19.1 µM and the IC50 stood at 12.3 µM.
Consider `O=C(CCCCCCCCCCc1ccccc1)c1c(O)cccc1O`, for which the EC50 was more than 14.8 µM and the 50% inhibitory concentration (IC50) is more than 14.8 µM.
On to `Cc1ccccc1-n1c(N)c(-c2nc3ccccc3[nH]2)sc1=S`, for which the EC50 is more than 4.27 µM and the IC50 is more than 4.27 µM.
Consider `CCOc1ccc(NC(=O)C(=O)CC(=O)c2c[n+](=O)c3cc(C)c(C)cc3n2[O-])cc1`, for which the EC50 was more than 8.51 µM and the IC50 is more than 8.51 µM.
Consider `Nc1c(-c2nc3ccccc3[nH]2)sc(=S)n1-c1ccccc1`, for which the EC50 was more than 11.5 µM and the IC50 was more than 11.5 µM.
Consider `CC(C)C1=CC2=CCC3C(C)(CN)CCCC3(C)C2CC1CCN` (configuration not stated), for which the EC50 was more than 100 µM and the IC50 is 1.48 µM.
For `c1ccc(N=C(N2CCOCC2)N(CCN2CCOCC2)c2ccccc2)cc1`, the EC50 was more than 200 µM and the concentration for half-maximal inhibition (IC50) worked out at 182 µM.
As to `Cc1noc(NS(=O)(=O)c2ccc(NC(=O)c3ccccc3SC(=O)CCCC[n+]3ccccc3)cc2)c1C`, the EC50 is 24 µM and the IC50 is 53.7 µM.
In the same order, the values of `COc1ccc(CN=CN/C(C#N)=C(\N)C#N)cc1OC` are more than 200 µM and more than 200 µM.
In the same order, the values of `Cc1nnc2n1-c1ccccc1C(=S)N1CSCC21` (configuration not stated) are more than 200 µM and more than 200 µM.
With `C=C1CCC[C@@H]2[C@@](C)(Cc3cc(O)ccc3O)C(C)CC[C@]12C` (some centres not stated), the EC50 was more than 60.3 µM and the IC50 was determined as 0.708 µM.
In the same order, the values of `O=C(O)c1ccc(NNC(=O)c2cccc3c(=O)c4ccccc4[nH]c23)cc1` are more than 200 µM and 74.1 µM.
In the same order, the values of `CC(C)(C)OC(=O)CC(NC(=O)OC(C)(C)C)C(=O)Oc1ccc([N+](=O)[O-])cc1` (configuration not stated) are more than 200 µM and more than 200 µM.
In the same order, the values of `O=C(O)c1c(Cl)c(Cl)c(Cl)c(Cl)c1-c1c2ccc(=O)cc-2oc2cc(O)ccc12` are 6.46 µM and 29.5 µM.
As to `BrCC[P+](c1ccccc1)(c1ccccc1)c1ccccc1`, the EC50 was more than 200 µM and the IC50 was 3.98 µM.
For the molecule `COc1cc(=O)cc(Cl)c(Cl)c1Cl`, the outcome was inactive.
As for `Cc1ccc(Nc2nc(C)c(C(=O)CC(=O)C(=O)Nc3c(C)cccc3C(C)(C)C)s2)cc1`, the EC50 is more than 200 µM and the IC50 is more than 200 µM.
In the case of `CCc1n[nH]c(=O)n1O`, the EC50 was more than 200 µM and the IC50 was more than 200 µM.
Consider `COC(=O)C1CCN(C(=O)OC(C)(C)C)CC1`, for which the EC50 is more than 200 µM and the IC50 was more than 200 µM.
As to `C[C@]12CC/C(=N/O)C(O)=C1CC[C@@H]1C2CC[C@]2(C)NC(=O)CCC12` (some centres not stated), the EC50 is more than 282 µM and the IC50 amounted to 132 µM.
With `C#CCn1c(=O)c2ccccc2n(CC#C)c1=O`, the EC50 was more than 200 µM and the IC50 is more than 200 µM.
On to `O=C1c2ccccc2NC2(C(=O)Nc3ccccc32)N1N1CCOCC1` (configuration not stated), for which the EC50 is more than 200 µM and the IC50 is more than 200 µM.
As to `Cc1n[nH]c2ccccc2c1=O`, the EC50 was more than 676 µM and the 50% inhibitory concentration (IC50) came out at 490 µM.
With `COc1c(NC(=O)CC(C)=O)[c]([Hg][O]C(C)=O)c(OC)c(Cl)[c]1[Hg][O]C(C)=O`, the EC50 was more than 0.692 µM and the IC50 is more than 0.692 µM.
In the case of `O=C(C(=Cc1ccc(F)cc1)C(=O)c1ccccc1)c1ccccc1`, the EC50 is more than 110 µM and the IC50 was more than 100 µM.
With `COc1cc2cc(C(=O)N3CC(CCl)c4c3cc(NC(=O)OCc3ccc([N+](=O)[O-])cc3)c3ccccc43)[nH]c2c(OC)c1OC` (configuration not stated), the EC50 was more than 200 µM and the IC50 came to 2.88 µM.
Consider `NS(=O)(=O)c1ccc(Nc2c3ccc(Cl)cc3nc3ncccc23)cc1`, for which the result was inactive.
As to `C=CC1(CC/C(=C\[N+](=O)[O-])c2ccc(OC)c(OC)c2)OCC(C)(C)CO1`, the EC50 was more than 200 µM and the IC50 came to 17.4 µM.
`O=C1CC2SC(COCc3ccccc3)(CCN2Cc2ccccc2)C1` (configuration not stated): the outcome was inactive and the IC50 came out at 41.7 µM.
Take `O=C1C(Cl)=C(Cl)C(=O)N1c1c(F)c(F)c(F)c(F)c1F`: the result was inactive.
In the case of `O=c1cc(NNc2cccc3ccccc23)[nH]c(=O)[nH]1`, the EC50 was more than 200 µM and the IC50 came out at 4.9 µM.
In the same order, the values of `CCCCCCCCCCCCCCCCCC1=Nc2ccccc2NC(=O)C1` are more than 100 µM and more than 100 µM.
In the same order, the values of `CCOCC(=O)N[C@H]1CCc2cc(OC)c(OC)c(OC)c2-c2ccc(SC)c(=O)cc21` are more than 0.2 µM and 0.00115 µM.
With `Nc1nc2c(c(=O)[nH]1)NC(CO)CN2` (configuration not stated), the result was inactive.
Turning to `O=[N+]([O-])/C=C/c1cn(CCCCCCCCn2cc(/C=C/[N+](=O)[O-])c3ccccc32)c2ccccc12`, the EC50 was more than 200 µM and the IC50 was 35.5 µM.
In the same order, the values of `CC1=N[C@@](C)(C2CC3C=CC2C3=O)COC1=O` (some centres not stated) are more than 288 µM and more than 288 µM.
Take `N#CC12CC(C=O)=C(N)C1(C#N)CC(C=O)=C2N` (configuration not stated): the EC50 was more than 200 µM and the IC50 was 14.8 µM.
Regarding `C[N+](C)(C)CCC#CC[N+]1(C)CCCC1`, the result was inactive.
For `CCCC/C(CC)=N/NS(=O)(=O)c1ccc(NC(C)=O)cc1`, the EC50 is more than 398 µM and the IC50 came out at 288 µM.
For the molecule `COc1c2c(cc3nc4ccccc4nc13)CCC(C(C)(C)O)C2` (configuration not stated), the result was inactive.
With `CN(C)c1nc2ccccc2[nH]1`, the result was inactive.
With `CCOC(=O)n1[nH][nH]c2c(c(=O)n(C)c(=O)n2C)n1C(=O)OCC`, the EC50 was more than 200 µM and the IC50 was more than 200 µM.
In the case of `O=C(/C=C/c1ccccc1)C[C@@H](O)C[C@@H]1CC=CC(=O)O1`, the EC50 is more than 200 µM and the IC50 worked out at 3.16 µM.
Consider `CCC1(CC)COP(=S)(S)OC1`, for which the EC50 was more than 200 µM and the IC50 was more than 200 µM.
In the case of `COc1c(OCc2ccccc2)c(OCc2ccccc2)cc(COS(=O)(=O)O)c1-c1c(COS(=O)(=O)O)cc(OCc2ccccc2)c(OCc2ccccc2)c1OC`, the EC50 was more than 1.58 µM and the IC50 is more than 1.58 µM.
On to `Cc1cccc2c(N)c3cccc(C(=O)NCC[N+](C)(C)Cc4ccccc4[N+](=O)[O-])c3nc12`, for which the EC50 is more than 100 µM and the IC50 was found to be 3.55 µM.
In the same order, the values of `COc1ccc(N/N=C/C2=CC(C)(C)C(C#N)(C#N)C(O)=C2C#N)cc1` are more than 200 µM and 28.2 µM.
On to `c1ccc2c(c1)[nH]c1c3ccccc3sc21`, for which the EC50 was more than 200 µM and the IC50 is more than 200 µM.
With `O=S1(=O)c2ccccc2C(c2ccccc2)(c2ccccc2)N1c1ccccc1`, the EC50 was more than 75.9 µM and the IC50 came to 55 µM.
In the case of `CC1(O)C(=O)OC2CC([C@]3(O)CCC4[C@@H]5C[C@H]6O[C@]67[C@@H](O)C=CC(=O)[C@]7(C)C5CC[C@@]43C)C1(C)C2` (some centres not stated), the EC50 was more than 200 µM and the IC50 is 11.7 µM.
In the same order, the values of `NNC(=O)N/N=C1\C(=O)N(c2nccs2)C(=O)C(=O)C1c1nc2ccccc2s1` (configuration not stated) are more than 2.45 µM and more than 2.45 µM.
In the same order, the values of `CC1(C)Oc2cc3oc(C(=O)O)cc(=O)c3cc2-c2ccc(O)cc21` are more than 490 µM and 347 µM.
On to `CC(=O)[O-].CC(=O)[O-].O=C(N/N=C/c1cc(Cl)cc(Cl)c1O)c1ccncc1.[Ni+2]`, for which the result was inactive.
For the molecule `CC(C)NC(=O)OCc1c(COC(=O)NC(C)C)n(C)c2c1ccc1ccccc12`, the EC50 is more than 174 µM and the IC50 was found to be 0.0813 µM.
`COC(=O)c1cnc2nc(N3CCOCC3)[nH]n2c1=O`: the EC50 was more than 12.9 µM and the IC50 was more than 12.9 µM.
For `OC1CC=C2CCN3Cc4cc5c(cc4C1C23)OCO5` (configuration not stated), the result was inactive.
In the case of `CCOC(=O)C(NC(C)=O)[CH](c1ccccc1)[Sn]([Cl])([c]1ccccc1)[c]1ccccc1` (configuration not stated), the EC50 was more than 200 µM and the concentration for half-maximal inhibition (IC50) worked out at 91.2 µM.
As for `Cc1c(NC(=S)NC(=O)c2ccc([N+](=O)[O-])cc2)c(=O)n(-c2ccccc2)n1C`, the outcome was inactive.
Regarding `CC(=O)COP(=O)(OCC(C)=O)OCC1OC(n2cc(C)c(=O)[nH]c2=O)CC1N=[N+]=[N-]` (configuration not stated), the EC50 is 0.000631 µM and the half-inhibitory concentration (IC50) turned out to be 2 µM.
`CC1(C)CCCC2(C)C1CCC1(C)OC3=CC(=O)C(O)=CC3=CC12` (configuration not stated): the EC50 is more than 30.2 µM and the IC50 is 2.82 µM.
In the same order, the values of `N#C/C(=C\c1c[nH]c2ccccc12)C(=O)c1ccc(O)c(O)c1` are more than 85.1 µM and 46.8 µM.
On to `O=C(N/N=C/c1cc(S(=O)(=O)O)c2cccnc2c1O)C(=O)N/N=C/c1cc(S(=O)(=O)O)c2cccnc2c1O`, for which the EC50 was more than 200 µM and the IC50 came out at 41.7 µM.
Consider `CC1CCOc2ccc(cc2)C=Nc2ccc(cc2)CCc2ccc(cc2)N=Cc2ccc(cc2)OCC1` (configuration not stated), for which the EC50 was more than 200 µM and the IC50 is more than 200 µM.
For the molecule `O=C1/C(=C\c2cccc(Oc3ccccc3)c2)S(=O)(=O)C(c2ccccc2)N1c1ccc(Cl)cc1` (configuration not stated), the EC50 was more than 20 µM.
As to `COc1cc(N=Nc2cc(NC(C)=O)c(N=Nc3ccc(C(=O)O)cc3)cc2S(=O)(=O)O)c(C)cc1N=Nc1ccc(NC(=O)c2ccc(N)cc2)cc1C`, the 50% effective concentration (EC50) was 14.1 µM and the IC50 is more than 100 µM.
In the same order, the values of `COc1ccc(OC)c2c(OC)cc(C)cc12` are more than 200 µM and 89.1 µM.
As to `Cc1c[nH]c(C(=O)O)c1-c1ccc2c(-c3ccccc3)nc3ccccc3n12`, the EC50 was more than 200 µM and the 50% inhibitory concentration (IC50) came to 33.1 µM.
`COc1ccccc1/C=C(\C#N)C(=O)c1ccccc1`: the EC50 is more than 20 µM and the IC50 was more than 20 µM.
